Where two headings read alike, the source gives them in different places.
What was measured:
cells cultured on μS PVA = assay: Viability of cells on μS PVA hydrogels with enzyme and/or prodrug (FIG. 17); format: cell-based; settings: full SMEPT conditions: μS PVA with immobilized enzyme and 1 μM SN-38 glucuronide
Excerpt: FIG. 17: Viability of cells on μS hydrogels with enzyme and/or prodrug.

HepG2 [1] = assay: SMEPT using static cell culture on LbL films, PrestoBlue cell viability (FIG. 21)
Procedure: Glass cover-slips. LbL assembly of PMA and PLL with incorporated enzyme was performed on glass cover-slips to evaluate the therapeutic effect of SN-38 under static conditions. Glass cover slips of 9 mm were sonicated in ethanol for 10 minutes, rinsed with ultrapure water, and dried with argon prior to UV sterilization for 20 minutes in a 48 well plate. Solutions of PLL and PMA, were incubated at 37° C. for 10 min prior to film assembly. Alternating layers were composed as (PLL/PMA)2.5-b-glucuronidase-(PMA/PLL)2 or […] for films without enzyme. Each layer was allowed to adsorb for 10 min at 37° C. followed by a washing step in HEPES buffer. The enzyme b-glucuronidase was added at a concentration of 20 μg/mL in HEPES buffer solution.
(§1) Cell Culture. The hepatocellular carcinoma cell line (HepG2) was used for all cell experiments. HEPG2 were cultured in a 75 cm^2 culture flask (3E6 cells/flask) in 10 mL medium (Minimum Essential Medium Eagle (MEME) supplemented with 10% fetal bovine serum (FCB), 1% penicillin and streptomycin, 1% non-essential amino acids, and 2 mM L-glutamine) and incubated at 37° C. and 5% CO2.
Static cell culture. The LbL coated glass slides were UV sterilized for 10 minutes prior to cell seeding. HepG2 cells with a starting density of 75.000 cells in 300 μL were seeded per well. The cells were allowed to adhere overnight before adding the (pro)drug SN-38 of 1 μM and incubate for 48 h. 200 μL of fresh media was added together with 20 μL of PrestoBlue cell viability reagent and evaluated on an EnspireMultilabel Plate Reader after 30 minutes of incubation.
A glucuronide prodrug of a commercial anticancer drug, SN-38, was used. […] Further, hepatocellular carcinoma (HCC) is a condition successfully addressed using tools for localized drug delivery, but solitary drugs are currently accommodated for this mode of delivery.
Hepatocytes were seeded on the biocatalytic film (PLL/PMA)2.5/β-Glu/(PGA/PMA)2 and allowed to adhere overnight before refreshing the media and adding the (pro)drug at 1 μM.

HepG2 [2] = tested on: HepG2
Procedure: as §1

HepG2 [3] = assay: Cell viability in three sequentially connected perfusion chambers, site-specific delivery (FIG. 25); format: cell-based; settings: for viability of cells reduced to: 1 μM, 4 h flow, further 48 h culture
Excerpt: For the evaluation of drug delivery to subsequent chambers tubings were connected so that the flow of solution would enter the first chamber containing PEMs with enzyme and subsequent flow to chamber 2 and chamber 3 with cell culture on TCPS.
It is assumed that when the drug is synthesized within the coating immediately underneath the cultured cells, through increased local concentration of the drug, the synthesized therapeutic would exert a higher local effect in adhering cells as compared to the cells growing “downstream”. […] Outlet from chamber 1 was connected to the inlet for chamber 2, and in turn, outlet of chamber 2 was connected to the inlet of chamber 3. Hepatocytes were seeded in all three chambers, but only the cells in chamber 1 were cultured on biocatalytic coatings. Solution of SN-38 glucuronide (1 μM in cell culture media) was administered to the interconnected perfusion chambers at constant shear stress for 4 h. Subsequently, the perfusion chambers were flushed with (pro)drug-free media and the cells were cultured for a further 48 h, prior to the assessment of the cell viability.
The viability of cells cultured on biocatalytic coatings was reduced to ˜30% verifying a pronounced therapeutic response achieved via SMEPT under flow conditions. Viability of cells in chamber two was reduced to ˜60% thus being much higher than that for cells cultured on biocatalytic coatings. Taking into account dose response of HepG2 cells to SN-38, viability difference between 30% and 60% corresponds to ˜10-fold difference in the concentration of the drug used for the treatment. […] It is therefore highly likely that local therapeutic effect would exceed that at “downstream” location to a greater extent than illustrated in FIG. 25. Our data provide experimental proof of the site-specific drug delivery achieved via SMEPT and thus, illustrate therapeutic advantage associated with this technique.

HepG2 [4] = settings: previously shown by the applicants; cited from earlier work
b-Galactosidase = tested on: b-Galactosidase
Procedure: Microstructured PVA hydrogels were assembled using polymer solutions containing b-Galactosidase (1 g/L), stabilized using 0.5 M sodium sulfate and incubated in PBS for 1 h prior analysis. We used a substrate for b-Gal conversion of which affords nitric oxide (NO), a potent and multi-functional signaling and therapeutic molecule. This radical—molecule has a very short half-life and is rapidly converted into nitrite/nitrate, and the latter are conventionally used to quantify the levels of generated nitric oxide. Analysis of nitrite is conducted via a Griess assay, i.e. a colorimetric test establishing a linear correlation between the concentration of nitrite and absorbance at 530 nm; cf. FIG. 31.
b-Gal-NONOate was administered onto the enzyme-functionalized hydrogels at varied concentrations and incubated for 30 min, upon which the levels of […] were quantified via the Griess assay.

HepG2 [5] = assay: Cellular internalization of in situ generated fluorescent product, flow cytometry (FIG. 4); format: cell-based; settings: for levels of cellular fluorescence (cargo internalization): enzyme in μS PVA hydrogel, versus solution based conversion; for levels of cellular fluorescence (cargo internalization) / fluorescence of cultured cells: 2.5 μg/mL, 24 h; for fluorescence of cultured cells: prodrug in absence of the enzyme
Procedure: FIG. 4. Utility of SMEPT in generation and cellular internalization of in situ produced product is verified through quantification of fluorescence of hepatic cells cultured on the μS PVA hydrogels. […] Experimental conditions: (A) 1 g/L enzyme in the polymer solution; initial concentration of fluorescein diglucuronide, 2.5 μg/mL; incubation time 24 h; (B) 1 g/L enzyme in the polymer solution; initial concentration of fluorescein diglucuronide 0.25 (top) and 0.025 (bottom) […].
Towards this goal, hydrogels were prepared using solutions of PVA supplemented with a synthetic polypeptide, poly-L-lysine (PLL). […] Enzyme- and PLL-containing PVA hydrogels were assembled as described above, after which time μS thin films were used as substrates for adhesion and proliferation of a model cell line, HepG2. […] Furthermore, advanced efforts in engineering of liver tissue require co-culturing of mammalian cells (e.g. hepatocytes and Kupffer cells), a challenge which is successfully addressed using μS and micro-patterned substrates. These notions together justify the use of a hepatic cell line and μS PVA hydrogels for the development of SMEPT.
Initial, internalization of a fluorescent reporter molecule produced via SMEPT and via a solution-based conversion was compared. To achieve this, the cells were seeded on μS PVA hydrogels and were allowed 24 h for attachment, after which time the media was changed to fresh media and, for solution based prodrug conversion, equivalent amount of the enzyme as that contained within μS PVA hydrogels was administered to the cultured cells. At this point, the samples were charged with fluorescein di-glucuronide to a 2.5 μg/mL concentration (3.65 μM). Upon 24 h incubation, fluorescence of the harvested cells was quantified using flow cytometry. […] We note that solution based prodrug conversion is used herein only as a measure to verify protein activity and utility of SMEPT. In the human body, β-glucuronidase has a limited spread and an activity markedly lower as compared to bacterial copy used in this study. The latter notion provides for a low level of “background” prodrug conversion and contributes to specificity of drug delivery achieved with the use of β-glucuronidase and glucuronide prodrugs, as documented for ADEPT and inherited by SMEPT.
For further characterization of SMEPT, the time course of cellular internalization of the in situ generated fluorescent reporter product was followed at two concentrations of the fluorogenic pro-drug, 0.025 and 0.25 μg/mL (36.5 and 365 nM, respectively). At specified time points, fluorescence of the detached cells was quantified using flow cytometry, FIG. 19B. […] Further to this, at each time point, higher pro-drug concentration affords a higher level of fluorescence registered in the cultured cells, i.e. a greater amount of internalized cargo. Together, these two graphs present time- and dose-dependent internalization of reporter cargo and illustrate the tools of control offered by SMEPT for substrate mediated drug delivery.

b-glucuronidase = molecular target: T1, b-glucuronidase (Escherichia coli, UniProt P05804); assay: Prodrug conversion in flow by biocatalytic LbL films in perfusion chambers (FIG. 23); format: biochemical; settings: constant flow
T1 construct: purchased
Procedure: For evaluation of the enzymatic activity the prodrug fluorescein di-glucuronide, FdG, of 5 μg/mL was added to syringes and connected to the coated perfusion chambers. A syringe pump was used to control the shear stress using 0.15, 0.074, 0.03 dyn/cm^2. An “on demand” conversion of prodrug under flow conditions a syringe with buffer was used as a control. The “on” and “off” was then controlled by the switch of syringes to the given μ-slide chamber.
For multiple layers of enzyme the PEMs were constructed as (PMA/PLL)4 keeping the total amount of layers constant and adding the enzyme in between each layer of PLL.
All evaluations were measured out on the PlateReader by collecting aliquots from the outlet tubing during the experiment and transferred to a 96-well pate.
A unique opportunity associated with multilayered surface coatings relates to the possibility to build films with a desired thickness for which polymer adsorption can be performed to a desired number of layers. Similarly, LbL deposition would allow controlling the amount of enzyme within the thin film through a facile change in the number of protein deposition steps. To show this, polymer coatings were assembled using one or three layers of adsorbed β-Glu keeping the total number of polymer layers constant. […] While a single layer of the enzyme achieved a <[…] concentration of the product, three protein layers suffice for a build-up of product concentration to over 30 nM, all achieved under dynamic, constant flow conditions.

T1 sequence (P05804 whole entry, the tested form may be a part): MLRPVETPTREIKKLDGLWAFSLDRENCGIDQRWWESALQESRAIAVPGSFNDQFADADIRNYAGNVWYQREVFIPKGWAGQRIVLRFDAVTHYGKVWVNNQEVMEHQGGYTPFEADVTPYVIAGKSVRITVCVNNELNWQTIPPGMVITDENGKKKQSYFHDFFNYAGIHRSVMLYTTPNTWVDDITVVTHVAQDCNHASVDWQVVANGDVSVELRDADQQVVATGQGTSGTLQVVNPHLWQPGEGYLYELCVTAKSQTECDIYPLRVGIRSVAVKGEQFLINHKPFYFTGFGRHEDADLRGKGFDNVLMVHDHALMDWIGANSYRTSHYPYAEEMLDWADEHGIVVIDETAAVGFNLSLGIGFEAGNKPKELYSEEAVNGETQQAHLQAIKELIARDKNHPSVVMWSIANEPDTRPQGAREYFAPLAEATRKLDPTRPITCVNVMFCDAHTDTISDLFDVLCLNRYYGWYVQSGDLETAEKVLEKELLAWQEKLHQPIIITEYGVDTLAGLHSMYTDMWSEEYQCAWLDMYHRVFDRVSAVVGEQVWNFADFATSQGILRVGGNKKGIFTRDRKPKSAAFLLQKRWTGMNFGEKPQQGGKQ

For `CCc1c2c(nc3ccc(O[C@@H]4O[C@H](C(=O)O)[C@@H](O)[C@H](O)[C@H]4O)cc13)-c1cc3c(c(=O)n1C2)COC(=O)[C@]3(O)CC` [SN-38 glucuronide], the “cytotoxic effect (viability of cells)” value (cells cultured on μS PVA) was “cytotoxic effect which is comparable to the active drug SN-38”, the “cell viability reduced by” value (HepG2 [1]; SMEPT: hepatocytes on β-Glu-containing LbL film, 1 μM, 48 h incubation, compared to control) was ~80% and the “change in cell viability” value (HepG2 [1]; prodrug on (PLL/PMA)4.5 coatings, no enzyme incorporated, 1 μM, 48 h) was “minor albeit statistically significant decrease in the cell viability”. For the same compound, the “reduction in viability of the hepatocytes compared with SMEPT” value (HepG2 [1]; solution based EPT: prodrug and enzyme both in solution, enzyme-free LbL films, 1 μM, 48 h) was “similar”, the “decrease in cell viability by” value (HepG2 [2]; 1 μM, 4 h flow on biocatalytic film, then static drug-free culture, total 48 h, normalized to cells without (pro)drug) was ~70% and the “viability of cells reduced to” value (HepG2 [3]; chamber 1, cells on biocatalytic coatings) was ~30%. For the same compound, the “viability of cells reduced to” value (HepG2 [3]; chamber two, downstream, no biocatalytic coating) was ~60% and the “inherent cytotoxic effects on hepatocytes” value (HepG2 [4]) was “did not have an inherent cytotoxic effects on hepatocytes”.

With `CCc1c2c(nc3ccc(O)cc13)-c1cc3c(c(=O)n1C2)COC(=O)[C@]3(O)CC` [SN-38] the “reduction in viability of the hepatocytes compared with SMEPT” value (HepG2 [1]) was “similar”, the “cell culture time required for a well-pronounced therapeutic effect” value (HepG2 [2]) was “at least 48 h” and the “time the presence of the drug was required for a pronounced therapeutic effect” value (HepG2 [2]) was ≥ 4 h. For the same compound, the “difference in the concentration of the drug corresponding to viability difference between 30% and 60%” value (HepG2 [3]; from dose response of HepG2 cells to SN-38) was ~10 fold.

For `[O-]/[N+](=N\O[C@@H]1O[C@H](CO)[C@H](O)[C@H](O)[C@H]1O)N1CCCC1` [b-Gal-NONOate], the “prodrug conversion/drug production of NO” value (b-Galactosidase; absence of enzyme) was “no prodrug conversion/drug production of NO is observed” and the administered dose converted (b-Galactosidase; within 30 min of incubation, b-Galactosidase PVA hydrogels) was “approximately 50%”.

For `O=C1OC2(c3ccc(O[C@@H]4O[C@H](C(=O)O)[C@@H](O)[C@H](O)[C@H]4O)cc3Oc3cc(O[C@@H]4O[C@H](C(=O)O)[C@@H](O)[C@H](O)[C@H]4O)ccc32)c2ccccc21` [fluorescein di-glucuronide], the “fluorescence of cells over time” value (HepG2 [5]; SMEPT, 0.025 and 0.25 μg/mL, earliest time-point 1 h) was “pronounced increase in the fluorescence of cells”, the “levels of cellular fluorescence (cargo internalization)” value (HepG2 [5]; SMEPT) was “comparable to that produced by a solution based administration” and the “levels of cellular fluorescence (cargo internalization)” value (HepG2 [5]; SMEPT, listed as fluorescein diglucuronide) was “comparable levels of fluorescence of cultured cells”. The “fluorescence of cultured cells” value (HepG2 [5]) was “fluorescence identical to pristine, non-treated cells”, the “fluorescence of cultured cells” value (HepG2 [5]; listed as fluorescein diglucuronide) was “negligible change in the fluorescence of cultured cells” and the “amount of product synthesized in unit time, 3 versus 1 layers of adsorbed protein” value (b-glucuronidase; identical prodrug concentration) was “approximately 3 ×”. For the same compound, the “concentration of the product” value (b-glucuronidase; single layer of the enzyme) was < 10 nm and the “concentration of the product” value (b-glucuronidase; three protein layers) was “over 30 nM”.

Source: patent US20150110847A1, “Substrate Mediated Enzymes Prodrug Therapy” (Aarhus Universitet, priority 2012, published 2015)
